One test has as its system E. coli 25922. The test can be described thus: Antibacterial activity, microbroth dilution MIC (Table 1). The test is classed as cell-based, Escherichia coli. Particulars: Escherichia coli; microbroth dilution; control Gram-negative E. coli 25922 strain; read-out: MIC, 25922. A digest of the protocol:
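Each strain is exposed to test compound in a microbroth dilution series; visible growth is scored macroscopically, and the lowest growth-free concentration is recorded as MIC in μg/mL.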
In general terms: In broth dilution the organism is exposed to a series of concentrations in liquid medium.

For test [1], the system named is Escherichia coli (E. coli) BAS849. The description is as above. It is filed as cell-based. The settings on record: microbroth dilution, super sensitive Gram-negative E. coli BAS849, read-out: MIC, BAS849. The essentials:
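Values are MICs (μg/mL): the smallest drug amount at which macroscopically visible bacterial growth is absent under assay conditions, from a microdilution method in broth.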

Test [2] concerns Staphylococcus aureus (S. aureus) 29213. The description is as above. Particulars: microbroth dilution, Gram-positive S. aureus 29213, read-out: MIC, 29213. It is filed as cell-based. A digest of the protocol:
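Broth microdilution; endpoint = no macroscopic growth; value = lowest inhibiting concn, μg/mL.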

The test system of test [3] is Pseudomonas aeruginosa (P. aeruginosa) 27853. The test can be described thus: Antibacterial activity, MIC (Table 5). It is filed as cell-based. The settings on record: P. aeruginosa 27853, read-out: MIC, 27853. A digest of the protocol:
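Using a microbroth dilution format, the minimum inhibitory concentration was recorded as the lowest tested concentration that stopped visible bacterial growth, expressed in μg/mL.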

Another test has as its system E. coli LZ3111. The test can be described thus: Antibacterial activity, MIC, quinolone resistant strain (Table 2). It is filed as cell-based. The settings on record: Escherichia coli, LZ3111, read-out: MIC LZ3111. The essentials: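 Growth inhibition assessed by serial drug dilution in broth; endpoint was absence of macroscopically visible growth, reported as MIC, μg/mL.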

The test system of test [4] is Acinetobacter baumannii (A. baumannii) BAA747. The test can be described thus: Antibacterial activity, MIC (Table 4). The test is classed as cell-based. The settings on record: A. baumannii BAA747, read-out: MIC, BAA747. The essentials:
(§1)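 Compounds are serially diluted in microbroth, bacteria are grown under the test conditions, and growth is then inspected macroscopically. The lowest concentration without visible growth is reported as the MIC (μg/mL).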

Test [5] has as its system Klebsiella pneumoniae (K. pneumoniae) 35657. The test can be described thus: Antibacterial activity, MIC (Table 4). The test is classed as cell-based. Particulars: K. pneumoniae 35657, read-out: MIC, 35657. A digest of the protocol:
as §1

In the next test the test system is A. baumannii MXX2240. The test can be described thus: Antibacterial activity, MIC, resistant strain (Table 4). The test is classed as cell-based. The settings on record: Acinetobacter baumannii, MXX2240; resistant A. baumannii MMX2240, multi-drug resistant clinical isolate; read-out: MIC, MMX2240. A digest of the protocol: as §1
Another test concerns K. pneumoniae MXX1232. The description is as above. It is filed as cell-based. The settings on record: Klebsiella pneumoniae, MXX1232; resistant K. pneumoniae MMX1232, multi-drug resistant clinical isolate; read-out: MIC, MMX1232. A digest of the protocol: as §1

Values after ≈ are worked out from the molar mass of the structure shown.

On to `CCc1c(-c2ccc3c(c2)[nH]c2ccccc23)[nH]c(=O)c(C(=O)O)c1O` [Cpd 432, 6-(9H-carbazol-2-yl)-5-ethyl-4-hydroxy-2-oxo-1,2-dihydropyridine-3-carboxylic acid], for which the minimum inhibitory concentration (MIC) in the test on E. coli 25922 was 3.5 to 12.5 µg/mL (≈ 10 to 35.9 µM); in test [1] it was under 1 µg/mL; in [2], under 1 µg/mL; in test [3] it was 12.5 to 150 µg/mL (≈ 35.9 to 431 µM); in the test with E. coli LZ3111 it was 12.5 to 150 µg/mL (≈ 35.9 to 431 µM); in [4], 1 to 3.5 µg/mL (≈ 2.87 to 10 µM). The minimal inhibitory concentration (MIC) in test [5] lay in the range of 3.5 to 12.5 µg/mL (≈ 10 to 35.9 µM); in the test on A. baumannii MXX2240, 12.5 to 150 µg/mL (≈ 35.9 to 431 µM); with K. pneumoniae MXX1232, 12.5 to 150 µg/mL (≈ 35.9 to 431 µM).
Turning to `CCc1c(-c2ccc3cc[nH]c3n2)[nH]c(=O)c(C(=O)O)c1O` [Cpd 433, 5-ethyl-4-hydroxy-2-oxo-6-(1H-pyrrolo[2,3-b]pyridin-6-yl)-1,2-dihydropyridine-3-carboxylic acid], the MIC in the test on E. coli 25922 was 12.5 to 150 µg/mL (≈ 41.8 to 501 µM); in [1], under 1 µg/mL; in test [2], 12.5 to 150 µg/mL (≈ 41.8 to 501 µM); in test [3], 12.5 to 150 µg/mL (≈ 41.8 to 501 µM); with E. coli LZ3111, 12.5 to 150 µg/mL (≈ 41.8 to 501 µM); in test [4], 3.5 to 12.5 µg/mL (≈ 11.7 to 41.8 µM). Further, the MIC lay in the range of 3.5 to 12.5 µg/mL (≈ 11.7 to 41.8 µM) in test [5], 12.5 to 150 µg/mL (≈ 41.8 to 501 µM) with A. baumannii MXX2240 and 12.5 to 150 µg/mL (≈ 41.8 to 501 µM) with K. pneumoniae MXX1232.
With `Cc1c(-c2ccc3cc[nH]c3n2)[nH]c(=O)c(C(=O)O)c1O` [Cpd 434, 4-hydroxy-5-methyl-2-oxo-6-(1H-pyrrolo[2,3-b]pyridin-6-yl)-1,2-dihydropyridine-3-carboxylic acid], the MIC (in the test with E. coli 25922; in test [1]; in [2]; in test [3]; in the test on E. coli LZ3111; in [4]) was 12.5 to 150 µg/mL (≈ 43.8 to 526 µM) each time. Besides, the MIC (in test [5]; in the test with A. baumannii MXX2240; in the test with K. pneumoniae MXX1232) was 12.5 to 150 µg/mL (≈ 43.8 to 526 µM) throughout.
`CCc1c(-c2ccc3c(ccn3-c3ccccc3)c2)[nH]c(=O)c(C(=O)O)c1O` [Cpd 435, 5-ethyl-4-hydroxy-2-oxo-6-(1-phenyl-1H-indol-5-yl)-1,2-dihydropyridine-3-carboxylic acid]: the MIC in the test on E. coli 25922 was 12.5 to 150 µg/mL (≈ 33.4 to 401 µM); in test [1] it was under 1 µg/mL; in [2], under 1 µg/mL; in test [3] it was 12.5 to 150 µg/mL (≈ 33.4 to 401 µM); with E. coli LZ3111, 12.5 to 150 µg/mL (≈ 33.4 to 401 µM); in test [4], 12.5 to 150 µg/mL (≈ 33.4 to 401 µM). The MIC (in [5]; in the test on A. baumannii MXX2240; with K. pneumoniae MXX1232) was 12.5 to 150 µg/mL (≈ 33.4 to 401 µM) throughout.
As for `CCc1c(-c2ccc3c(ccn3-c3ccccn3)c2)[nH]c(=O)c(C(=O)O)c1O` [Cpd 436, 5-ethyl-4-hydroxy-2-oxo-6-(1-(pyridin-2-yl)-1H-indol-5-yl)-1,2-dihydropyridine-3-carboxylic acid], the minimum inhibitory concentration (MIC) with E. coli 25922 was 12.5 to 150 µg/mL (≈ 33.3 to 400 µM); in test [1] it was under 1 µg/mL; in [2], 1 to 3.5 µg/mL (≈ 2.66 to 9.32 µM); in test [3] it was 12.5 to 150 µg/mL (≈ 33.3 to 400 µM); in the test on E. coli LZ3111, 12.5 to 150 µg/mL (≈ 33.3 to 400 µM); in test [4], 12.5 to 150 µg/mL (≈ 33.3 to 400 µM). The MIC (in test [5]; in the test on A. baumannii MXX2240; with K. pneumoniae MXX1232) was 12.5 to 150 µg/mL (≈ 33.3 to 400 µM) in each case.
As for `CCc1c(-c2ccc3c(ccn3-c3ccc(C(F)(F)F)cc3)c2)[nH]c(=O)c(C(=O)O)c1O` [Cpd 437, 5-ethyl-4-hydroxy-2-oxo-6-(1-(4-(trifluoromethyl)phenyl)-1H-indol-5-yl)-1,2-dihydropyridine-3-carboxylic acid], the MIC in the test with E. coli 25922 is 12.5 to 150 µg/mL (≈ 28.3 to 339 µM); in test [1], under 1 µg/mL; in test [2], 3.5 to 12.5 µg/mL (≈ 7.91 to 28.3 µM); in [3], 12.5 to 150 µg/mL (≈ 28.3 to 339 µM); in the test with E. coli LZ3111, 12.5 to 150 µg/mL (≈ 28.3 to 339 µM); in [4], 12.5 to 150 µg/mL (≈ 28.3 to 339 µM). Moreover, the MIC (in test [5]; with A. baumannii MXX2240; with K. pneumoniae MXX1232) was 12.5 to 150 µg/mL (≈ 28.3 to 339 µM) each time.
For the compound `CCc1c(-c2ccc3c(ccn3-c3ccc(F)cc3)c2)[nH]c(=O)c(C(=O)O)c1O` [Cpd 438, 5-ethyl-6-(1-(4-fluorophenyl)-1H-indol-5-yl)-4-hydroxy-2-oxo-1,2-dihydropyridine-3-carboxylic acid], the minimal inhibitory concentration (MIC) in the test with E. coli 25922 was 12.5 to 150 µg/mL (≈ 31.9 to 382 µM); in [1] it was under 1 µg/mL; in [2], under 1 µg/mL; in test [3] it was 12.5 to 150 µg/mL (≈ 31.9 to 382 µM); in the test with E. coli LZ3111, 12.5 to 150 µg/mL (≈ 31.9 to 382 µM); in test [4], 12.5 to 150 µg/mL (≈ 31.9 to 382 µM). For the same compound, the minimal inhibitory concentration (MIC) (in test [5]; with A. baumannii MXX2240; in the test on K. pneumoniae MXX1232) was 12.5 to 150 µg/mL (≈ 31.9 to 382 µM) in each case.
Take `CCc1c(-c2ccc3c(ccn3-c3cccc(N4CCCC4)c3)c2)[nH]c(=O)c(C(=O)O)c1O` [Cpd 439, 5-ethyl-4-hydroxy-2-oxo-6-(1-(3-(pyrrolidin-1-yl)phenyl)-1H-indol-5-yl)-1,2-dihydropyridine-3-carboxylic acid]: the MIC in the test on E. coli 25922 lay in the range of 12.5 to 150 µg/mL (≈ 28.2 to 338 µM); in test [1] it was 1 to 3.5 µg/mL (≈ 2.25 to 7.89 µM); in test [2], 3.5 to 12.5 µg/mL (≈ 7.89 to 28.2 µM); in test [3] it was 12.5 to 150 µg/mL (≈ 28.2 to 338 µM); with E. coli LZ3111, 12.5 to 150 µg/mL (≈ 28.2 to 338 µM); in test [4], 12.5 to 150 µg/mL (≈ 28.2 to 338 µM). The MIC (in test [5]; in the test on A. baumannii MXX2240; in the test with K. pneumoniae MXX1232) was 12.5 to 150 µg/mL (≈ 28.2 to 338 µM) throughout.

As usually defined, the MIC is the lowest concentration found to suppress growth.

Source of the values: patent US9409905B2, “Antibacterial compounds and methods for use” (PTC THERAPEUTICS, INC., priority 2011, dated 2016).
